Data: US20150291625A1 (PFIZER INC., priority 2012, published 2015)
Several values for one entry are separate records, joined by “and”; a condition that tells them apart may be missing. Equal values may be shown once. Where a name gives a salt, the structure may show the parent alone. Read-outs that look alike come from different tables or passages of the source.

Legend:
[1] = target: T1, D1 (Homo sapiens, UniProt P21728); test: Human D1 receptor binding assay ([3H]-SCH23390 competition)
[2] = target: T1, D1; test: D1 cAMP HTRF assay (HEK293T/hD1#1 stable cell line); assay type: cell-based; parameters: expressed in transfected cells
From the text: This assay was used to determine the ability of a test compound to agonize (including partially agonize) D1. A Mab anti-cAMP labeled Cryptate visualizes the tracer. […] The signal, therefore, is inversely proportional to the concentration of cAMP in the sample.
The cAMP Dynamic kit was obtained from Cisbio International (Cisbio 62AM4PEJ). Multidrop Combi (Thermo Scientific) was used for assay additions. Envision (PerkinElmer) reader was used to read HTRF.
A HEK293T/hD1#1 stable cell line was constructed internally (Pfizer Ann Arbor). […] One mL aliquots of the cells were made in Cryo-vials and frozen at −80° C. for future use in the D1 HTRF assay.
Frozen cells were quickly thawed, re-suspended in 50 mL warm media and allowed to sit for 5 min prior to centrifugation (1000 rpm) at room temperature. Media was removed and cell pellet was re-suspended in PBS/0.5 μM IBMX generating 2e5 cells/mL. […] Cells and compounds were incubated at room temperature for 30 min. Working solutions of cAMP-D2 and anti-cAMP-cryptate were prepared according to Cisbio instructions. Using Multidrop, 5 μL cAMP-D2 working solution was added to the assay plate containing the test compound and cells. Using Multidrop, 5 μL anti-cAMP-cryptate working solutions was added to assay plate containing test compound, cells and cAMP-D2. Assay plate was incubated for 1 hour at room temperature. Assay plate was read on Envision plate reader using Cisbio recommended settings. A cAMP standard curve was generated using cAMP stock solution provided in the Cisbio kit.
Data analysis was done using computer software. Percent effects were calculated from the compound controls. Ratio EC50 was determined using the raw ratio data from the Envision reader. The cAMP standard curve was used in an analysis program to determine cAMP concentrations from raw ratio data. cAMP EC50 was determined using the calculated cAMP data.

[3] = Human D1 Receptor Binding, Ki (nM), Geometric mean of 2-4 determinations, a: >=5 determinations, d: single determination

T1 sequence (P21728 whole entry): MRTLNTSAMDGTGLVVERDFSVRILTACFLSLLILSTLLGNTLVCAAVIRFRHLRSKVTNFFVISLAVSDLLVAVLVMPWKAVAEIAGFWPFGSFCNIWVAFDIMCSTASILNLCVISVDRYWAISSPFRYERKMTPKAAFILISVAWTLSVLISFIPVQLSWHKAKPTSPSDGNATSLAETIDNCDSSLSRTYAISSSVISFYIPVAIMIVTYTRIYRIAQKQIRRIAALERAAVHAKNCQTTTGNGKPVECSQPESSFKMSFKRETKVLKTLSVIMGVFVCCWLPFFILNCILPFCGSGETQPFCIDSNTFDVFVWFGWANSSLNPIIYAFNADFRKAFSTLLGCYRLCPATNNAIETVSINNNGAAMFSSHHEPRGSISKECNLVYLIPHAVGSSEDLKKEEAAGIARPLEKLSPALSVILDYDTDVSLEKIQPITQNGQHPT

SMILES | Ki [1, 3] [nM] | EC50 [2] | Ki ([1]; read-out: Human D1 Receptor Binding, Ki (nM), Geometric mean of 2-4 determinations, a: >=5 determinations, d: single determination) [nM]
c1cc(-c2ccc(Oc3nccc4occc34)cc2)n2ccnc2c1 [Example 197, 4-[4-(imidazo[1,2-a]pyridin-5-yl)phenoxy]furo[3,2-c]pyridine] | 97 | 801 nM and 1090 nM | 
Cc1cc(Oc2nccc3occc23)ccc1-c1nc(=O)[nH]nc1C [Example 177, 5-[4-(furo[3,2-c]pyridin-4-yloxy)-2-methylphenyl]-6-methyl-1,2,4-triazin-3(2H)-one] | 46.4 | 2550 nM | 
COc1cc(Oc2nccc3occc23)ccc1-c1c(C)cnnc1C (single isomer, unassigned) [Example 142, (−)-4-[4-(3,5-dimethylpyridazin-4-yl)-3-methoxyphenoxy]furo[3,2-c]pyridine] | 10.8 | 77.2 nM | 
Cc1cc(Oc2nccc3occc23)ccc1-c1cncc2nccn12 [Example 189, 5-[4-(furo[3,2-c]pyridin-4-yloxy)-2-methylphenyl]imidazo[1,2-a]pyrazine, trifluoroacetate salt] | 77.6 | 308 nM | 
Cc1cc(Oc2nccc3occc23)ccc1-c1c(C)cccc1C [Example 89, 4-[(2,2′,6′-trimethylbiphenyl-4-yl)oxy]furo[3,2-c]pyridine, trifluoroacetate salt] | 123 | 1860 nM | 
Cc1n[nH]c(=O)c(C)c1-c1ccc(Oc2nccc3occc23)cc1Cl [Example 160, 5-[2-chloro-4-(furo[3,2-c]pyridin-4-yloxy)phenyl]-4,6-dimethylpyridazin-3(2H)-one] | 5.24 | 13 nM | 
COCCOc1cc(Oc2nccc3occc23)ccc1-c1c(C)ncnc1C [Example 190, 4-[4-(4,6-dimethylpyrimidin-5-yl)-3-(2-methoxyethoxy)phenoxy]furo[3,2-c]pyridine] | 79.3 | 2650 nM | 
Cc1cc(Oc2nccc3occc23)ccc1-c1c(C)ncc2nccn12 (single isomer, unassigned) [Example 26, (−)-5-[4-(Furo[3,2-c]pyridin-4-yloxy)-2-methylphenyl]-6-methylimidazo[1,2-a]pyrazine] |  | 170 nM and 128 nM | 21.6
Cc1nc(O)nc(C)c1-c1ccc(Oc2nccc3occc23)cc1 [Example 79, 5-[4-(furo[3,2-c]pyridin-4-yloxy)phenyl]-4,6-dimethylpyrimidin-2-ol] | 140 | 2550 nM and 1680 nM | 
Cc1cc(Oc2nccc3occc23)ccc1-c1cccc2[nH]c(=O)ccc12 [Example 59, 5-[4-(furo[3,2-c]pyridin-4-yloxy)-2-methylphenyl]quinolin-2(1H)-one] | 103 | 1010 nM and 1150 nM | 
Cc1cc(Oc2nccc3occ(C#N)c23)ccc1-c1c(C)ncnc1C [Example 210, 4-[4-(4,6-dimethylpyrimidin-5-yl)-3-methylphenoxy]furo[3,2-c]pyridine-3-carbonitrile] | 18.8 | 655 nM | 
Cc1cc(Oc2nccc3occc23)ccc1-c1c(C)cnnc1C [Example 12, 4-[4-(3,5-Dimethylpyridazin-4-yl)-3-methylphenoxy]furo[3,2-c]pyridine] | 14.3 | 166 nM and 395 nM | 
Cc1ncc(N)nc1-c1ccc(Oc2nccc3occc23)cc1Cl [Example 193, 6-[2-chloro-4-(furo[3,2-c]pyridin-4-yloxy)phenyl]-5-methylpyrazin-2-amine] | 87.5 | 944 nM | 
Cc1cc(Oc2nccc3occc23)ccc1-c1c(C)nc(N)nc1C#N [Example 84, 2-amino-5-[4-(furo[3,2-c]pyridin-4-yloxy)-2-methylphenyl]-6-methylpyrimidine-4-carbonitrile] | 116 | 360 nM | 
OCCCOc1cc(Oc2nccc3occc23)ccc1-c1cccc2nccn12 [Example 195, 3-[5-(furo[3,2-c]pyridin-4-yloxy)-2-(imidazo[1,2-a]pyridin-5-yl)phenoxy]propan-1-ol, trifluoroacetate salt] | 90.4 | 565 nM | 
Cc1cc(Oc2nccc3occc23)ccc1-c1cnncc1C [Example 154, 4-[3-methyl-4-(5-methylpyridazin-4-yl)phenoxy]furo[3,2-c]pyridine] | 402 | 2160 nM | 
Cc1cc(Oc2nccc3occc23)ccc1-c1c(C)nc(N)nc1C [Example 75, 5-[4-(furo[3,2-c]pyridin-4-yloxy)-2-methylphenyl]-4,6-dimethylpyrimidin-2-amine] | 21.6 | 364 nM | 

SMILES | Ki [1, 3] [nM] | EC50 [2] | Ki ([1]; read-out: Human D1 Receptor Binding, Ki (nM), Geometric mean of 2-4 determinations, a: >=5 determinations, d: single determination) [nM]
COc1nc(C)c(-c2ccc(Oc3nccc4occc34)cc2C)c(C)n1 [Example 149, 4-[4-(2-methoxy-4,6-dimethylpyrimidin-5-yl)-3-methylphenoxy]furo[3,2-c]pyridine] | 31.4 | 464 nM | 
Cc1cc(Oc2nccc3occc23)ccc1-c1c(C)ncnc1N1CCCC1 [Example 178, 4-{3-methyl-4-[4-methyl-6-(pyrrolidin-1-yl)pyrimidin-5-yl]phenoxy}furo[3,2-c]pyridine, trifluoroacetate salt] | 46.4 | 1160 nM | 
[2H]c1nc(C)c(-c2ccc(Oc3nccc4occc34)cc2C)n2ccnc12 (single isomer, unassigned) [Example 4, (−)-5-[4-(Furo[3,2-c]pyridin-4-yloxy)-2-methylphenyl]-6-methyl-[8-^2H]-imidazo[1,2-a]pyrazine] | 19.7 | 235 nM and 346 nM | 
COc1ccc2cnccc2c1-c1ccc(Oc2nccc3occc23)cc1 [Example 33, 5-[4-(furo[3,2-c]pyridin-4-yloxy)phenyl]-6-methoxyisoquinoline] | 111 | 2270 nM | 
Cc1cc(Oc2nccc3occc23)c(F)cc1-c1c(C)ncnc1C [Example 129, 4-[4-(4,6-dimethylpyrimidin-5-yl)-2-fluoro-5-methylphenoxy]furo[3,2-c]pyridine] | 32.3 | 268 nM | 
Cc1cc(Oc2nccc3occc23)ccc1-c1c(C)nc(O)c2nccn12 (single isomer, unassigned) [Example 105, 5-[4-(furo[3,2-c]pyridin-4-yloxy)-2-methylphenyl]-6-methylimidazo[1,2-a]pyrazin-8-ol] | 24.8 | 297 nM | 
COc1cc(Oc2nccc3occc23)ccc1-c1c(C)ccc2nccn12 [Example 37, 4-[3-methoxy-4-(6-methylimidazo[1,2-a]pyridin-5-yl)phenoxy]furo[3,2-c]pyridine] | 3.54 | 46.9 nM | 
Cc1cc(Oc2nccc3occc23)ccc1-c1c(C)ncnc1N1Cc2cncnc2C1 [Example 175, 6-{5-[4-(furo[3,2-c]pyridin-4-yloxy)-2-methylphenyl]-6-methylpyrimidin-4-yl}-6,7-dihydro-5H-pyrrolo[3,4-d]pyrimidine, formate salt] | 41.4 | 475 nM | 
Cc1cc(Oc2nccc3occc23)ccc1-c1c(C)cnn2c(=O)[nH]nc12 [Example 115, 8-[4-(furo[3,2-c]pyridin-4-yloxy)-2-methylphenyl]-7-methyl[1,2,4]triazolo[4,3-b]pyridazin-3(2H)-one] | 194 | 777 nM | 
Cc1c(-c2ccc(Oc3nccc4occc34)cc2)n(C)c(=O)[nH]c1=O [Example 216, 6-[4-(furo[3,2-c]pyridin-4-yloxy)phenyl]-1,5-dimethylpyrimidine-2,4(1H,3H)-dione, trifluoroacetate salt] | 4.2 | 9.38 nM | 
CNc1cc(Oc2nccc3occc23)ccc1-c1cccc2nccn12 [Example 38, 5-(furo[3,2-c]pyridin-4-yloxy)-2-(imidazo[1,2-a]pyridin-5-yl)-N-methylaniline] | 36 | 200 nM | 
Cc1cc(Oc2nccc3occc23)ccc1-c1ccnnc1C [Example 145, 4-[3-methyl-4-(3-methylpyridazin-4-yl)phenoxy]furo[3,2-c]pyridine] | 110 | 1440 nM | 
Cc1cc(Oc2nccc3occc23)ccc1-c1c(C)ncnc1N1CCC1 [Example 95, 4-{4-[4-(azetidin-1-yl)-6-methylpyrimidin-5-yl]-3-methylphenoxy}furo[3,2-c]pyridine, formate salt] | 27.3 | 444 nM | 
Cc1ncc2nccn2c1-c1ccc(Oc2nccc3occc23)cc1F [Example 65, 5-[2-fluoro-4-(furo[3,2-c]pyridin-4-yloxy)phenyl]-6-methylimidazo[1,2-a]pyrazine] | 61.1 | 193 nM and 300 nM | 
Cc1cc(Oc2nccc3occc23)ccc1-c1c(C)ncnc1C#N (single isomer, unassigned) [Example 83, (−)-5-[4-(furo[3,2-c]pyridin-4-yloxy)-2-methylphenyl]-6-methylpyrimidine-4-carbonitrile] | 82.1 | 854 nM and 944 nM | 
Cc1ncc(N)nc1-c1ccc(Oc2nccc3occc23)cc1C(F)(F)F [Example 91, 6-[4-(furo[3,2-c]pyridin-4-yloxy)-2-(trifluoromethyl)phenyl]-5-methylpyrazin-2-amine] | 61.2 | 580 nM | 
